Source: PubChem BioAssay (NCI)
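Method: 48-hour compound exposure of cells in 96-well plates, five concentrations, linear interpolation of endpoints. Here, GI50 denotes the concentration required for 50% inhibition of growth. Definition used: TGI = concentration required for complete inhibition of growth.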

What was measured:
Test in all cases: DTP human tumour cell line panel, 48 h
[1] = test system: SW-620 colon
[2] = test system: NCI-H460 lung
[3] = test system: NCI/ADR-RES ovarian
[4] = test system: RXF 393 renal
[5] = test system: HOP-92 NSCLC
[6] = test system: MDA-MB-435
[7] = test system: SK-MEL-2 melanoma
[8] = test system: HT29 colon
[9] = test system: NCI-H23 lung
[10] = test system: K-562 leukemia
[11] = test system: MDA-MB-231 breast
[12] = test system: HCT-116 colon
[13] = test system: BT-549 breast
[14] = test system: HS 578T breast
[15] = test system: SNB-19 CNS
[16] = test system: NCI-H522 lung
[17] = test system: RPMI-8226 leukemia
[18] = test system: SK-MEL-28 melanoma
[19] = test system: LOX IMVI melanoma
[20] = test system: MALME-3M melanoma
[21] = test system: NCI-H226 lung
[22] = test system: SK-OV-3 ovarian
[23] = test system: UACC-257 melanoma
[24] = test system: T-47D breast
[25] = test system: HL-60(TB) leukemia
[26] = test system: KM12 colon
[27] = test system: OVCAR-3 ovarian
[28] = test system: SN12C renal
[29] = test system: SNB-75 CNS
[30] = test system: TK-10 renal
[31] = test system: SF-268 CNS
[32] = test system: MOLT-4 leukemia
[33] = test system: M14 melanoma
[34] = test system: UO-31 renal
[35] = test system: HOP-62 NSCLC
[36] = test system: OVCAR-4 ovarian
[37] = test system: OVCAR-8 ovarian
[38] = test system: IGROV1 ovarian
[39] = test system: SR leukemia
[40] = test system: DU-145 prostate
[41] = test system: 786-0 renal
[42] = test system: HCT-15 colon
[43] = test system: A498 renal
[44] = test system: OVCAR-5 ovarian
[45] = test system: PC-3 prostate
[46] = test system: ACHN renal
[47] = test system: MCF7 breast
[48] = test system: UACC-62 melanoma
[49] = test system: SK-MEL-5 melanoma
[50] = test system: SF-539 CNS
[51] = test system: U251 CNS
[52] = test system: SF-295 CNS
[53] = test system: A549 NSCLC
[54] = test system: HCC-2998 colon
[55] = test system: EKVX NSCLC
[56] = test system: COLO 205 colon
[57] = test system: CAKI-1 renal

CSc1ccc(SC2c3ccc(C)cc3Oc3nc(N)c(C#N)c(N)c32)cc1 (stereo not drawn)
GI50 [1]: 2.03 µM | TGI [1]: 4.28 µM | GI50 [2]: 2.03 µM | TGI [2]: 4.07 µM | GI50 [3]: 2.22 µM | TGI [3]: 5.46 µM | GI50 [4]: 1.71 µM | TGI [4]: 3.12 µM | GI50 [5]: 1.9 µM | TGI [5]: 3.76 µM | GI50 [6]: 1.77 µM | TGI [6]: 3.27 µM | GI50 [7]: 2.11 µM | TGI [7]: 4.12 µM | GI50 [8]: 2.11 µM | TGI [8]: 4.37 µM | GI50 [9]: 1.69 µM | TGI [9]: 3.22 µM | GI50 [10]: 2.96 µM | TGI [10]: 9.91 µM | GI50 [11]: 1.6 µM | TGI [11]: 3 µM | GI50 [12]: 1.92 µM | TGI [12]: 3.65 µM | GI50 [13]: 1.53 µM | TGI [13]: 2.87 µM | GI50 [14]: 2.19 µM | TGI [14]: 5.53 µM | GI50 [15]: 1.77 µM | TGI [15]: 3.16 µM | GI50 [16]: 1.7 µM | TGI [16]: 3.13 µM | GI50 [17]: 2.43 µM | TGI [17]: 6.96 µM | GI50 [18]: 1.83 µM | TGI [18]: 3.29 µM | GI50 [19]: 1.51 µM | TGI [19]: 2.92 µM | GI50 [20]: 1.54 µM | TGI [20]: 3.01 µM | GI50 [21]: 1.81 µM | TGI [21]: 3.27 µM | GI50 [22]: 1.83 µM | TGI [22]: 3.29 µM | GI50 [23]: 1.81 µM | TGI [23]: 3.24 µM | GI50 [24]: 1.9 µM | TGI [24]: 4.84 µM | GI50 [25]: 2.12 µM | TGI [25]: 4.42 µM | GI50 [26]: 1.96 µM | TGI [26]: 3.65 µM | GI50 [27]: 1.74 µM | TGI [27]: 3.13 µM | GI50 [28]: 1.59 µM | TGI [28]: 2.94 µM | GI50 [29]: 2.2 µM | TGI [29]: 7.34 µM | GI50 [30]: 1.96 µM | TGI [30]: 3.37 µM | GI50 [31]: 1.7 µM | TGI [31]: 3.33 µM | GI50 [32]: 2.39 µM | TGI [32]: 6.05 µM | GI50 [33]: 1.86 µM | TGI [33]: 3.64 µM | GI50 [34]: 1.2 µM | TGI [34]: 2.43 µM | GI50 [35]: 1.73 µM | TGI [35]: 3.22 µM | GI50 [36]: 1.59 µM | TGI [36]: 3.01 µM | GI50 [37]: 1.79 µM | TGI [37]: 3.18 µM | GI50 [38]: 1.28 µM | TGI [38]: 3.05 µM | GI50 [39]: 2.54 µM | TGI [39]: 7.65 µM | GI50 [40]: 1.85 µM | TGI [40]: 3.26 µM | GI50 [41]: 1.68 µM | TGI [41]: 3.07 µM | GI50 [42]: 1.65 µM | TGI [42]: 3.18 µM | GI50 [43]: 2.05 µM | TGI [43]: 3.95 µM | GI50 [44]: 1.71 µM | TGI [44]: 3.24 µM | GI50 [45]: 1.64 µM | TGI [45]: 3.22 µM | GI50 [46]: 1.61 µM | TGI [46]: 2.96 µM | GI50 [47]: 1.84 µM | TGI [47]: 4.34 µM | GI50 [48]: 1.61 µM | TGI [48]: 2.97 µM | GI50 [49]: 1.76 µM | TGI [49]: 3.15 µM | GI50 [50]: 1.56 µM | TGI [50]: 2.98 µM | GI50 [51]: 1.69 µM | TGI [51]: 3.05 µM | GI50 [52]: 1.58 µM | TGI [52]: 2.97 µM | GI50 [53]: 1.82 µM | TGI [53]: 3.68 µM | GI50 [54]: 1.78 µM | TGI [54]: 3.28 µM | GI50 [55]: 1.6 µM | TGI [55]: 2.99 µM

CNC1=C(C(=O)OC)SC(c2ccccc2)(c2ccccc2)SC1
GI50 [1]: 15 µM | TGI [1]: > 100 µM | GI50 [2]: 16.9 µM | TGI [2]: > 100 µM | GI50 [3]: 12 µM | TGI [3]: 70.2 µM | GI50 [4]: 22 µM | TGI [4]: > 100 µM | GI50 [5]: 20.7 µM | TGI [5]: > 100 µM | GI50 [6]: 3.15 µM | TGI [6]: 10.9 µM | GI50 [7]: 7.06 µM | TGI [7]: 85.8 µM | GI50 [8]: 20.9 µM | TGI [8]: > 100 µM | GI50 [9]: 17.5 µM | TGI [9]: > 100 µM | GI50 [10]: 4.73 µM | TGI [10]: > 100 µM | GI50 [11]: 45.8 µM | TGI [11]: > 100 µM | GI50 [12]: 9.22 µM | TGI [12]: > 100 µM | GI50 [13]: 29.5 µM | TGI [13]: > 100 µM | GI50 [14]: 28.1 µM | TGI [14]: > 100 µM | GI50 [15]: 52.8 µM | TGI [15]: > 100 µM | GI50 [56]: 23.9 µM | TGI [56]: > 100 µM | GI50 [16]: 4.01 µM | TGI [16]: > 100 µM | GI50 [17]: 8.83 µM | TGI [17]: 39.7 µM | GI50 [18]: 26.6 µM | TGI [18]: > 100 µM | GI50 [19]: 21.2 µM | TGI [19]: > 100 µM | GI50 [21]: > 100 µM | TGI [21]: > 100 µM | GI50 [22]: 71.1 µM | TGI [22]: > 100 µM | GI50 [23]: 9.2 µM | TGI [23]: > 100 µM | GI50 [24]: 34.6 µM | TGI [24]: > 100 µM | GI50 [25]: 12 µM | TGI [25]: 58.2 µM | GI50 [26]: 6.92 µM | TGI [26]: > 100 µM | GI50 [27]: > 100 µM | TGI [27]: > 100 µM | GI50 [28]: 24 µM | TGI [28]: > 100 µM | GI50 [29]: 26.1 µM | TGI [29]: > 100 µM | GI50 [30]: 25.3 µM | TGI [30]: > 100 µM | GI50 [31]: 18.9 µM | TGI [31]: > 100 µM | GI50 [32]: 7.56 µM | TGI [32]: > 100 µM | GI50 [33]: 7.12 µM | TGI [33]: 67.7 µM | GI50 [34]: > 100 µM | TGI [34]: > 100 µM | GI50 [35]: 39.4 µM | TGI [35]: > 100 µM | GI50 [36]: 8.58 µM | TGI [36]: 82.6 µM | GI50 [37]: 24.9 µM | TGI [37]: > 100 µM | GI50 [57]: 44.1 µM | TGI [57]: > 100 µM | GI50 [39]: 2.4 µM | TGI [39]: 7.93 µM | GI50 [40]: 20.4 µM | TGI [40]: > 100 µM | GI50 [41]: 31.9 µM | TGI [41]: > 100 µM | GI50 [42]: 9.36 µM | TGI [42]: > 100 µM | GI50 [43]: 11.4 µM | TGI [43]: 85.3 µM | GI50 [44]: > 100 µM | TGI [44]: > 100 µM | GI50 [45]: 15.3 µM | TGI [45]: > 100 µM | GI50 [47]: 11.6 µM | TGI [47]: > 100 µM | GI50 [48]: 9.51 µM | TGI [48]: > 100 µM | GI50 [49]: 19.5 µM | TGI [49]: > 100 µM | GI50 [50]: 26.3 µM | TGI [50]: > 100 µM | GI50 [51]: 34.8 µM | TGI [51]: > 100 µM | GI50 [52]: 6.06 µM | TGI [52]: 39.4 µM | GI50 [53]: 9.63 µM | TGI [53]: > 100 µM | GI50 [54]: 13.1 µM | TGI [54]: > 100 µM | GI50 [55]: 36.1 µM | TGI [55]: > 100 µM
